“And” between values parts separate entries of the source, which are not always exact repeats. Equal values may be shown once. Read-outs that look alike come from different tables or passages of the source.
How the values were obtained:
[1] = system: HCT-116^wt colon carcinoma cells; assay: MTT cell viability assay, HCT-116wt; format: cell-based, human; conditions: 72 h
Method: (§1) Cells were seeded in 96-well microtiter plates (Sarstedt) with a cell density of 0.05 × 10^6 cells per ml and 100 µL per well and incubated for 24 h. A dilution series of test compounds was added to the wells, ranging in twelve steps from 100 µM to 5 nM. As a control, equal amounts of DMSO were added. Treated cells were further incubated for 72 h. Then, 12.5 µL per well of MTT solution (0.05% in phosphate-buffered saline (PBS)) was added, followed by another 2 h of incubation. The plates were centrifuged, the medium was discarded and 25 µL per well of SDS solution in DMSO (10% SDS, 0.6% AcOH in DMSO) was added to dissolve the formazan. The plates were incubated for a further hour. Absorbances at 570 nm and 630 nm were measured using a plate reader (Tecan). Background absorbance (630 nm) was subtracted from the formazan signal (570 nm). The resulting absorbance was directly proportional to the amount of viable cells. The control was normalized to 100% viable cells and viability of cells treated with test compounds was calculated accordingly. IC50 values were calculated based on a sigmoidal fit model using GraphPad Prism. Means and SD were calculated from at least four independent experiments.

[2] = system: HCT-116^p53−/− (p53 knockout mutant) colon carcinoma cells; assay: MTT cell viability assay, HCT-116 p53-/-; format: cell-based, human; conditions: 72 h
Method: as §1

[3] = system: mdr KB-V1^Vbl cervix carcinoma cells; assay: MTT cell viability assay, KB-V1 (with and without verapamil); format: cell-based, human; conditions: 72 h, without verapamil
Method: as §1, with “All complexes stable in solution were investigated for their anti-proliferative effect on nine human cancer cell lines, using the MTT-based cell viability assay. Cells” for “Cells”

[4] = system: MCF-7 mamma carcinoma cells; assay: MTT cell viability assay, MCF-7; format: cell-based, human
Method: as §1, with “All complexes stable in solution were investigated for their anti-proliferative effect on nine human cancer cell lines, using the MTT-based cell viability assay. Cells” for “Cells”

[5] = system: mdr MCF-7^Topo mamma carcinoma cells; assay: MTT cell viability assay, MCF-7Topo; format: cell-based, human; conditions: 72 h
Method: as §1, with “All complexes stable in solution were investigated for their anti-proliferative effect on nine human cancer cell lines, using the MTT-based cell viability assay. Cells” for “Cells”

U-87 glioblastoma cells = assay: MTT cell viability assay, U-87; format: cell-based, human; conditions: 72 h
Method: as §1, with “All complexes stable in solution were investigated for their anti-proliferative effect on nine human cancer cell lines, using the MTT-based cell viability assay. Cells” for “Cells”

518A2 melanoma cells [6] = assay: MTT cell viability assay, 518A2; format: cell-based, human
Method: as §1, with “All complexes stable in solution were investigated for their anti-proliferative effect on nine human cancer cell lines, using the MTT-based cell viability assay. Cells” for “Cells”

[7] = system: human adult dermal fibroblasts HDFa; assay: MTT cell viability assay, HDFa; format: cell-based; conditions: 72 h, non-malignant fibroblasts
Method: as §1, with “All complexes stable in solution were investigated for their anti-proliferative effect on nine human cancer cell lines, using the MTT-based cell viability assay. Cells” for “Cells”

[8] = system: caspase 3/7 in 518A2 melanoma cells; assay: Caspase 3/7 activation; format: cell-based, human; conditions: 518A2 cells, 10 µM, 6 h
Method: The assay was conducted, following manufacturer’s instructions using the Cell Meter Caspase 3/7 activity apoptosis assay kit (AAT Bioquest). Briefly, 518A2 melanoma cells were seeded in 96-well flat black microtiter plates with a density of 0.22 × 10^6 cells per mL and 90 µL per well. After 24 h of incubation, 10 µL per well of tenfold diluted test compounds was added, and the cells were incubated for a further 6 h. Subsequently, 100 µL per well of Caspase 3/7 substrate working solution was added and incubated for 1 h in the dark at room temperature. The fluorescence was measured using a micro-plate reader (Tecan) at ex/em = 490/525 nm.

EA.hy926 cells = assay: Tube formation assay; format: cell-based, human; conditions: 5 µM (CA-4 0.01 µM)
Method: EA.hy926 cells were cultured overnight in endothelial medium (37 °C, 95% humidity, 5% CO2) instead of DMEM. In addition, Matrigel was thawed on ice in the refrigerator. Pipette tips and 96-well plates were stored at − 20 °C overnight. The next day, 30 µL of Matrigel was added to each well bubble-free and the well plate was incubated for approximately 45 min (37 °C, 95% humidity, 5% CO2). Subsequently, 100 µL of cell suspension was added to each well at a concentration of 0.4–0.5 × 10^6 cells/mL onto the Matrigel-treated wells and the substances were added in tenfold pre-dilution. This was followed by incubation for approximately 6 h, until tubes formed in the negative control with DMSO. At this point, documentation under the microscope took place.

518A2 melanoma cells [9] = assay: Inhibition of wound healing (scratch migration assay); format: cell-based, human; conditions: 518A2 cells, IC50 concentrations, 0-24 h
Method: Cells of melanoma cell line 518A2 were seeded in a volume of 500 µL and at a concentration of 0.1 × 10^6 cells/mL in 24-well plates in triplicate. The plate was incubated (37 °C, 95% humidity, 5% CO2) for two days until a confluent monolayer was formed. A 10 µL pipette tip was used to create a wound in the cell lawn, the wound was rinsed with PBS and the medium was changed to a FBS-reduced one. Pictures were taken at first time point (0 h) right before the addition of substance at 100-fold pre-dilution. The plate was then incubated again in the incubator and photos were taken at several more time points (6, 12, and 24 h) [262626].

[10] = Homo sapiens, Colon carcinoma cell

SMILES	IC50 [1, 10]	IC50 [2, 10]	IC50 ([3]; Homo sapiens, KB-V1/Vbl)	IC50 ([4]; Homo sapiens, MCF7, 72 h)	IC50 ([5]; Homo sapiens, MCF7/Topo)	IC50 (U-87 glioblastoma cells; Homo sapiens)	IC50 (518A2 melanoma cells [6]; Homo sapiens, 518A2, 72 h)	IC50 ([7]; Homo sapiens, HDFa)	Caspase 3/7 activity [8]	Inhibition of tube formation (EA.hy926 cells)	IC50 [3]	IC50 ([4]; 72 h, read-out: IC50 MCF7)	IC50 ([5]; read-out: IC50 MCF7^Topo)	IC50 (U-87 glioblastoma cells)	IC50 [1]	IC50 [2]	IC50 (518A2 melanoma cells [6]; 72 h)	IC50 [7]	Effect on cell migration (scratch closure) (518A2 melanoma cells [9])
Sc1ncnc2nc[nH]c12 [6-MP, 6-Mercaptopurine, reference compound]	5300 ± 280 nM	580 ± 50 nM	1600 ± 100 nM	3700 ± 260 nM	6400 ± 460 nM	1400 ± 130 nM	11000 ± 1100 nM	> 50000 nM	increased caspase activity levels	–	–	–	–	–	–	–	–	–	–
Nc1nc2nc[nH]c2c(=S)[nH]1 [6-TG, 6-thioguanine, reference compound]	–	–	500 ± 50 nM	980 ± 80 nM	900 ± 90 nM	1700 ± 80 nM	5200 ± 450 nM	> 50000 nM	increased caspase activity levels	stronger such effect when compared to 6-MP	–	–	–	–	–	–	–	–	–
CC(=O)OC[C@H]1O[C@@H]([S-])[C@H](OC(C)=O)[C@@H](OC(C)=O)[C@@H]1OC(C)=O.CCP(CC)CC.[Au+] [Auranofin, auranofin]	–	–	–	–	–	–	–	–	increased caspase activity levels	inhibitory effects	1900 ± 70 nM	2200 ± 220 nM	4700 ± 430 nM	2400 ± 240 nM	–	–	–	–	–
OC[C@H]1O[C@@H](n2cnc3c([S][Au][PH](c4ccccc4)(c4ccccc4)c4ccccc4)ncnc32)[C@H](O)[C@@H]1O [Complex 5, (1,7-Dihydro-6H-purine-9-β-D-ribofuranosyl-6-thiolato) (triphenylphosphane) gold(I)]	–	–	–	–	–	–	–	–	increased caspase activity levels	inhibitory effect, comparable in strength to that of 6-TG	–	2400 ± 220 nM	1700 ± 140 nM	1700 ± 150 nM	1700 ± 200 nM	300 ± 70 nM	2600 ± 250 nM	36000 ± 1700 nM	retarded the closure of the scratch
Nc1nc([S][Au][PH](c2ccccc2)(c2ccccc2)c2ccccc2)c2ncn([C@@H]3O[C@H](CO)[C@@H](O)[C@H]3O)c2n1 [Complex 6, (2-Amino-1,7-dihydro-6H-purine-9-β-D-ribofuranosyl-6-thiolato) (triphenylphosphane) gold(I)]	–	–	–	–	–	–	–	–	even exceeded the effects of the three controls	–	910 ± 90 nM	5800 ± 570 nM	3200 ± 290 nM	1200 ± 120 nM	5500 ± 200 nM	1400 ± 300 nM	~3500 nM and 3500 nM	36000 ± 3000 nM	even accelerated it

— publication PMC9653339, “Revisiting the anticancer properties of phosphane(9-ribosylpurine-6-thiolato)gold(I) complexes and their 9H-purine precursors” (Journal of Biological Inorganic Chemistry, 2022)
